# Values quoted from earlier work as cited in patent publication US20110086898A1, “PYRAZOLOOXAZOLE COMPOUND” (Eisai R&D Management Co., Ltd., priority 2009, published 2011).
# Columns and labels:
# [1] = system: hippocampal tau phosphorylation; conditions: Journal of Neuroscience, 27 (24): 6552-6562 (2007); cited from earlier work
# [2] = system: hypertension induced by intraventricular administration of CRF; conditions: Brain Research, 881: 204-207 (2000); cited from earlier work
# rats [3] = conditions: Psychopharmacology, 137:184-190 (1998); cited from earlier work
# rats [4] = conditions: Psychopharmacology, 150:317-324 (2000); cited from earlier work
# [5] = system: naltrexone-induced morphine withdrawal symptoms; conditions: pretreatment; Journal of Neurochemistry, 74: 199-208 (2000); cited from earlier work
# [6] = system: learning disability following acute stress; conditions: Behavioural Brain Research, 138: 207-213 (2003); cited from earlier work
# [7] = system: gastric emptying retardation after surgery; conditions: Gastroenterology, 125:654-659 (2003); cited from earlier work
# rats [8] = conditions: European Journal of Pharmacology, 492:195-201 (2004); cited from earlier work
# [9] = system: depression, depressive symptoms, anxiety; conditions: Journal of Psychiatric Research, 34:171-181 (2000); cited from earlier work
# rats [10] = conditions: European Journal of Neuroscience, 13:373-380 (2001); cited from earlier work
# high-anxiety rats = conditions: particularly in high-anxiety rats; Journal of Psychiatric Research, 36:197-208 (2002); cited from earlier work
compound,measurement,setting,value
CCCCN(CC)c1nc(C)nc2c1c(C)c(C)n2-c1c(C)cc(C)cc1C [antalarmin],stress-induced hippocampal tau phosphorylation,[1],inhibits
same,hypertension induced by intraventricular administration of CRF,[2],inhibits
CCCCN(CC)c1nc(C)nc2c1c(C)cn2-c1c(C)cc(C)cc1C [CP-154526],"recurrence of stress-elicited drug (heroin, cocaine)-seeking behavior",rats [3],inhibits
same,recurrence of stress-elicited alcohol-seeking behavior,rats [4],inhibits
same,naltrexone-induced morphine withdrawal symptoms,[5],inhibits
same,learning disability following acute stress,[6],inhibits
same,gastric emptying retardation after surgery,[7],recovers
same,anti-depressant and anti-anxiety actions,rats [8],exhibits anti-depressant and anti-anxiety actions
CCCN(CCC)c1cc(C)nc2c(-c3cnc(N(C)C)cc3C)c(C)nn12 [Example R121919],"ameliorating depression, depressive symptoms, anxiety",[9],effective
same,anti-anxiety action,rats [10],exhibits an anti-anxiety action
same,stress-related sleep disorder,high-anxiety rats,inhibits
